Measured values as given in paper PMC3527451, “A Pilot Randomized, Placebo Controlled, Double Blind Phase I Trial of the Novel SIRT1 Activator SRT2104 in Elderly Volunteers” (PLoS ONE, 2012).
“Also recorded” adds a separate entry of the source.

Tests used:
SIRT3 = details: SIRT1 activation over SIRT3; ref SRT2104 Investigator's Brochure; cited from earlier work
SIRT1 = test system: SIRT1; parameters: method as in JC Milne et al, 2007; details: lowering of the Km for acetylated protein substrate; ref JC Milne et al, 2007; cited from earlier work
CYP1A = test system: CYP1A; parameters: method as in ref 17, 18 (a number printed in a supplementary file, which may have a reference list of its own: not looked up in the article's list); details: cultured hepatocytes, at the concentrations tested; cited from earlier work
[1] = Plasma pharmacokinetics of SRT2104, once daily oral dosing for 28 days in elderly volunteers; type: in vivo, human; details: for AUC(0-∞), Geometric Least Square Mean: Day 1, AUC(0-∞); for AUC(0-t)_D, dose-normalized Geometric Least Square Mean / AUC(0-∞)_D, dose-normalized Geometric Least Square Mean / Cmax_D, dose-normalized Geometric Least Square Mean / AUC(0-τ)_D, dose-normalized Geometric Least Square Mean: normalized to 0.5 g
Text: This was a phase I, single-center, double-blind, randomized, placebo-controlled, parallel-arm study to assess the safety, tolerability, pharmacokinetic and initial pharmacodynamic properties of […] Pharmaceuticals, Cambridge, MA, USA) administered for the first time to male and female elderly volunteers 60 to 80 years of age. Volunteers were enrolled between 01 Oct 2009 and 5 Feb 2010. […] The selection of the doses investigated in this study was based upon safety and pharmacokinetic data obtained from a previous clinical study involving SRT2104 [19]. Suitability of participants was defined on the basis of a medical history, physical examination, vital signs, electrocardiogram and laboratory measurements. Subjects were required to have normal fasting glucose levels (4.4 to 6.0 mmol/L) at screening and a body mass index of at least 18 kg/m^2 and no greater than 30 kg/m^2. […] Subjects were deemed ineligible if they participated in any clinical trial with an investigative medicinal product within the past three months prior to the first dose in the current study, had been exposed to more than three new chemical entities within 12 months of enrollment, or used other concomitant medications and herbal products in the previous 3 months that in the opinion of the investigator could interfere with the study procedures or compromise subject safety. Additional exclusions included: women of childbearing potential and non-sterile men, unless they agreed to use acceptable method of contraception; history of alcoholism or drug abuse (including a positive pre-study drug/alcohol test at screening); use of tobacco or nicotine products; history of complications when donating blood or known relative inaccessibility of veins for venipuncture; donation of blood within three months of enrolment; history of significant drug or other allergies. Participants were asked to maintain their usual level of physical activity for the duration of the study. During the treatment phase of the study (days 1 to 28 inclusive), test material (SRT2104 or placebo) was supplied as 250 mg capsules and was administered at approximately the same time every morning, approximately 15 minutes following consumption of a standardized meal (Ensure Plus®, a high energy, high protein liquid meal replacement product providing approximately 650 kcal with approximately 30% of calories derived from fat). Subjects were not permitted to consume additional calories for at least 1-2 hours after dosing, although water was permitted ad libitum. Subjects were also instructed to refrain from caffeine and alcohol for 24 hours prior to screening and during assessments visits. The test material was administered within the investigation clinical unit on the days when serial pharmacokinetic sampling was performed (days 1-2 and 28-29) and at home on the remaining days (days 3-27). A diary card was provided to volunteers to confirm daily consumption of the standardized meal, as well as time of dose and number of capsules taken. Missing doses were recorded. Pharmacokinetic samples were collected through 24 hours post-dose on the first and last day of the dosing period (immediately prior to dosing and at 15, 30 minutes and 1, 2, 3, 4, 8, 12 and 24 hours post-dose). Blood samples for pharmacokinetic analysis were collected in pre-labelled lithium heparin heparin Vacutainers for pharmacokinetic analysis (∼4 mL per draw). Each sample was separated by centrifugation at 1500×g and 4°C for 10 minutes. Two equal aliquots of plasma were transferred to polypropylene vials labelled identically to the original blood sample and stored at approximately -20°C for subsequent analysis of plasma SRT2104 concentration. The bio-analysis was performed by Simbec Research Ltd, […], South Wales, UK. Pharmacokinetic parameters for SRT2104 were derived from non-compartmental methods using WinNonLin v5.2 (Pharsight Corporation, Mountain View, CA, USA). […]

[2] = 0.5 or 2.0 g once daily, abstract summary

In the case of `Cc1nc(-c2cccnc2)sc1C(=O)Nc1ccccc1-c1cn2c(CN3CCOCC3)csc2n1` [SRT2104], the “fold selectivity as compared to SIRT3” value (SIRT3) is listed as over 100, the “increase in SIRT1 activity” value (SIRT1) is listed as “approximately two-fold increase in activity” and the “induction of CYP1A” value (CYP1A) is listed as “not a significant inducer”. For the same compound, the “Tmax (mean peak plasma concentration)” value ([1]; 0.5 g/day group) was 2 to 4 h, the “between-subject variability for AUC(0–24), geometric mean CV” value ([1]; 0.5 g/day group) was 140% and the “t1/2 of one subject” value ([1]; 0.5 g/day group, after first administration) was 29.7 h. The “t1/2 of one subject” value ([1]; 0.5 g/day group, after repeated administrations) was 28.3 h, the “AUC(0-t), Geometric Least Square Mean” value ([1]; 0.5 g/day, Day 1) was 1950.07 ng·h/mL and the “Cmax, Geometric Least Square Mean” value ([1]; 0.5 g/day, Day 1) was 326.22 ng/mL. For the same compound, the “AUC(0-∞), Geometric Least Square Mean” value ([1]; 0.5 g/day) was 2503.70 ng·h/mL, the “AUC0-∞” value ([1]; 0.5 g/day, Day 1, geometric mean) was 1790.8 ng·h/mL and the AUC0-t ([1]; 0.5 g/day, Day 1, mean) was 1872.9 ng·h/mL. The CL/F ([1]; 0.5 g/day, Day 1, mean) was 594.2 L/h, the Cmax ([1]; 0.5 g/day, Day 1, mean) was 343.4 ng/mL and the t1/2 ([1]; 0.5 g/day, Day 1, mean) was 14.9 h. The tmax ([1]; 0.5 g/day, Day 1, median) was 3.0 h, the “AUC(0-t), Geometric Least Square Mean” value ([1]; 0.5 g/day, Day 28) was 1610.10 ng·h/mL and the “Cmax, Geometric Least Square Mean” value ([1]; 0.5 g/day, Day 28) was 199.12 ng/mL. For the same compound, the “AUC0-∞” value ([1]; 0.5 g/day, Day 28, geometric mean) was 2687.8 ng·h/mL, the AUC0-t ([1]; 0.5 g/day, Day 28, mean) was 2280.4 ng·h/mL and the CL/F ([1]; 0.5 g/day, Day 28, mean) was 566.9 L/h. It also gave a Cmax ([1]; 0.5 g/day, Day 28, mean) of 373.4 ng/mL, a t1/2 ([1]; 0.5 g/day, Day 28, mean) of 17.5 h and a tmax ([1]; 0.5 g/day, Day 28, median) of 3.0 h. The “Mean Tmax” value [1, 2] was 2 to 4 h, the elimination half-life [1, 2] was 15 to 20 h and the “dose proportionality of exposure (Cmax, AUC)” value ([1]; 0.5 to 2.0 g/day) was “less than dose-proportionally; also recorded: less than dose proportional increase in exposure”. For the same compound, the “between-subject variability for AUC(0–24), geometric mean CV” value ([1]; 2.0 g/day group) was 102%, the “Tmax (apparent mean rise to peak concentration)” value ([1]; 2.0 g/day group, after the first dose) was 2 to 8 h and the “AUC(0-t), Geometric Least Square Mean” value ([1]; 2.0 g/day, Day 1) was 1743.14 ng·h/mL. For the same compound, the “Cmax, Geometric Least Square Mean” value ([1]; 2.0 g/day, Day 1) was 301.28 ng/mL, the “AUC(0-∞), Geometric Least Square Mean” value ([1]; 2.0 g/day) was 1788.42 ng·h/mL and the “AUC0-∞” value ([1]; 2.0 g/day, Day 1, geometric mean) was 2073.5 ng·h/mL. The AUC0-t ([1]; 2.0 g/day, Day 1, mean) was 3249.2 ng·h/mL, the CL/F ([1]; 2.0 g/day, Day 1, mean) was 1624.4 L/h and the Cmax ([1]; 2.0 g/day, Day 1, mean) was 477.6 ng/mL. The t1/2 ([1]; 2.0 g/day, Day 1, mean) was 15.1 h, the tmax ([1]; 2.0 g/day, Day 1, median) was 3.0 h and the “AUC(0-t), Geometric Least Square Mean” value ([1]; 2.0 g/day, Day 28) was 3577.50 ng·h/mL. The “Cmax, Geometric Least Square Mean” value ([1]; 2.0 g/day, Day 28) was 389.50 ng/mL, the “AUC0-∞” value ([1]; 2.0 g/day, Day 28, geometric mean) was 7729.6 ng·h/mL and the AUC0-t ([1]; 2.0 g/day, Day 28, mean) was 4797.4 ng·h/mL. It also gave a CL/F ([1]; 2.0 g/day, Day 28, mean) of 789.6 L/h, a Cmax ([1]; 2.0 g/day, Day 28, mean) of 572.4 ng/mL and a t1/2 ([1]; 2.0 g/day, Day 28, mean) of 21.6 h. The tmax ([1]; 2.0 g/day, Day 28, median) was 3.0 h, the “increase in mean AUC(0–24) relative to the first day of dosing” value ([1]; 2.0 g/day, repeat administration) was “approximately two-fold increases” and the “AUC(0-t)_D, dose-normalized Geometric Least Square Mean” value ([1]; Day 1, 0.5 g/day) was 1297.86 ng·h/mL. For the same compound, the “AUC(0-∞)_D, dose-normalized Geometric Least Square Mean” value ([1]; Day 1, 0.5 g/day) was 1754.57 ng·h/mL, the “Cmax_D, dose-normalized Geometric Least Square Mean” value ([1]; Day 1, 0.5 g/day) was 215.74 ng/mL and the “AUC(0-t)_D, dose-normalized Geometric Least Square Mean” value ([1]; Day 1, 2.0 g/day) was 516.59 ng·h/mL. The “AUC(0-∞)_D, dose-normalized Geometric Least Square Mean” value ([1]; Day 1, 2.0 g/day) was 504.43 ng·h/mL, the “Cmax_D, dose-normalized Geometric Least Square Mean” value ([1]; Day 1, 2.0 g/day) was 69.64 ng/mL and the “AUC(0-t)_D, % Ratio (90% C.I.) 2.0 g/0.5 g” value ([1]; Day 1, dose proportionality) was 39.80 (14.39–110.07) %. For the same compound, the “AUC(0-∞)_D, % Ratio (90% C.I.) 2.0 g/0.5 g” value ([1]; Day 1, dose proportionality) was 28.75 (9.56–86.49) %, the “Cmax_D, % Ratio (90% C.I.) 2.0 g/0.5 g” value ([1]; Day 1, dose proportionality) was 32.28 (10.41–100.15) % and the “AUC(0-t)_D, dose-normalized Geometric Least Square Mean” value ([1]; Day 28, 0.5 g/day) was 1548.09 ng·h/mL. For the same compound, the “AUC(0-τ)_D, dose-normalized Geometric Least Square Mean” value ([1]; Day 28, 0.5 g/day) was 1548.74 ng·h/mL, the “AUC(0-∞)_D, dose-normalized Geometric Least Square Mean” value ([1]; Day 28, 0.5 g/day) was 2636.12 ng·h/mL and the “Cmax_D, dose-normalized Geometric Least Square Mean” value ([1]; Day 28, 0.5 g/day) was 206.06 ng/mL. The “AUC(0-t)_D, dose-normalized Geometric Least Square Mean” value ([1]; Day 28, 2.0 g/day) was 911.01 ng·h/mL, the “AUC(0-τ)_D, dose-normalized Geometric Least Square Mean” value ([1]; Day 28, 2.0 g/day) was 909.85 ng·h/mL and the “AUC(0-∞)_D, dose-normalized Geometric Least Square Mean” value ([1]; Day 28, 2.0 g/day) was 1903.42 ng·h/mL. The “Cmax_D, dose-normalized Geometric Least Square Mean” value ([1]; Day 28, 2.0 g/day) was 96.83 ng/mL, the “AUC(0-t)_D, % Ratio (90% C.I.) 2.0 g/0.5 g” value ([1]; Day 28, dose proportionality) was 58.85 (25.18–137.51) % and the “AUC(0-τ)_D, % Ratio (90% C.I.) 2.0 g/0.5 g” value ([1]; Day 28, dose proportionality) was 58.75 (25.10–137.52) %. The “AUC(0-∞)_D, % Ratio (90% C.I.) 2.0 g/0.5 g” value ([1]; Day 28, dose proportionality) was 72.21 (33.02–157.88) %, the “Cmax_D, % Ratio (90% C.I.) 2.0 g/0.5 g” value ([1]; Day 28, dose proportionality) was 46.99 (15.44–142.99) % and the “Cmax, AUC(0-τ) and AUC(0–24) exposures in the 2.0 g/day group compared to the 0.5 g/day group” value ([1]; human, in vivo) was “approximately two-fold higher or less”. For the same compound, the “differences in exposure between men and women” value ([1]; human, in vivo) was “No apparent differences in exposure” and the apparent half-life ([1]; mono-exponential decline, both doses) was “approximately 15 hours”.
